# Biological target: HDAC1 (Homo sapiens, UniProt Q13547)
# Test: HDAC1 colorimetric assay, substrate Boc-Lys(Ac)-AMC
# Conditions: IC50 HDAC1, Table 1
# Experimental: 1 nM of HDAC1 was incubated with increasing concentrations of the respective compound for 30 minutes at 30° C. The reaction was initiated by addition of 50 μM of the substrate Boc-Lys(Ac)-AMC. After an incubation of 60 minutes the reaction was stopped by addition of 20 μM SAHA and the deacetylated substrate was converted into a fluorescent product by the addition of trypsin.
# HDAC1, sequence (Q13547 whole entry): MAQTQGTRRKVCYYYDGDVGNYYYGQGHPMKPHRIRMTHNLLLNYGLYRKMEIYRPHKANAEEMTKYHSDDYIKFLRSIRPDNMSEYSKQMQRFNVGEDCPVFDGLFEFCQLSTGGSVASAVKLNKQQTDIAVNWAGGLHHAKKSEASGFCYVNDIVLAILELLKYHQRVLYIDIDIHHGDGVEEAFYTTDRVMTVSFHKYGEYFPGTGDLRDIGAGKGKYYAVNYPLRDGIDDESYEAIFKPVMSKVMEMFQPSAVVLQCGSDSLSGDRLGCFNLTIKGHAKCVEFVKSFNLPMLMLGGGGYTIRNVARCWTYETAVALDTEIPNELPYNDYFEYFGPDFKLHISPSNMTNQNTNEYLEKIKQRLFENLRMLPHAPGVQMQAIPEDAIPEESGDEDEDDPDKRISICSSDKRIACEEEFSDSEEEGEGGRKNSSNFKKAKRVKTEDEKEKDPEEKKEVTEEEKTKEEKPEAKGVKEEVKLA
row,IC50 [µM],Compound
1,21 ± 1,"N=C1Sc2ccc(Cl)cc2C2=NCCN12 [Compound 13c, 9-Chloro-2H-Benzo[e]Imidazo[1,2-c][1,3]Thiazin-5(3H)-Imine]"
2,> 50,"N=C1Sc2ccccc2C2=NCCN12 [Compound 13b, 2H-Benzo[e]Imidazo[1,2-c][1,3]Thiazin-5(3H)-Imine]"
3,2.6 ± 0.3,"N=C1Sc2cccc(Br)c2C2=NCCCN12 [Compound 13j, 11-Bromo-3,4-Dihydrobenzo[e]Pyrimido[1,2-c][1,3]Thiazin-6(2H)-Imine]"

# Same assay, conditions: IC50 for HDAC1, FIG. 3; 50 μM Boc-Lys(Ac)-AMC
row,IC50 [µM],Compound
1,20,"N=C1Sc2ccc(Cl)cc2C2=NCCN12 [Compound 13c, 9-Chloro-2H-Benzo[e]Imidazo[1,2-c][1,3]Thiazin-5(3H)-Imine]"

# Tested on: uterine leiomyosarcoma cell line SKUT-1
# Test: Growth inhibition of cancer cell line, resazurin assay
# Assay type: cell-based, Human
# Conditions: Homo sapiens, SK-UT-1; Table 2, resazurin assay
row,GI50 [µM],Compound
1,64 ± 7,"N=C1Sc2ccc(Cl)cc2C2=NCCN12 [Compound 13c, 9-Chloro-2H-Benzo[e]Imidazo[1,2-c][1,3]Thiazin-5(3H)-Imine]"
2,343 ± 191,"N=C1Sc2ccccc2C2=NCCN12 [Compound 13b, 2H-Benzo[e]Imidazo[1,2-c][1,3]Thiazin-5(3H)-Imine]"
3,16 ± 3,"N=C1Sc2cccc(Br)c2C2=NCCCN12 [Compound 13j, 11-Bromo-3,4-Dihydrobenzo[e]Pyrimido[1,2-c][1,3]Thiazin-6(2H)-Imine]"

# Biological target: HDAC3 (Homo sapiens, UniProt O15379)
# Test: HDAC3 colorimetric assay, substrate Boc-Lys(Ac)-AMC
# Assay type: biochemical
# Conditions: Table 1
# HDAC3, sequence (O15379 whole entry): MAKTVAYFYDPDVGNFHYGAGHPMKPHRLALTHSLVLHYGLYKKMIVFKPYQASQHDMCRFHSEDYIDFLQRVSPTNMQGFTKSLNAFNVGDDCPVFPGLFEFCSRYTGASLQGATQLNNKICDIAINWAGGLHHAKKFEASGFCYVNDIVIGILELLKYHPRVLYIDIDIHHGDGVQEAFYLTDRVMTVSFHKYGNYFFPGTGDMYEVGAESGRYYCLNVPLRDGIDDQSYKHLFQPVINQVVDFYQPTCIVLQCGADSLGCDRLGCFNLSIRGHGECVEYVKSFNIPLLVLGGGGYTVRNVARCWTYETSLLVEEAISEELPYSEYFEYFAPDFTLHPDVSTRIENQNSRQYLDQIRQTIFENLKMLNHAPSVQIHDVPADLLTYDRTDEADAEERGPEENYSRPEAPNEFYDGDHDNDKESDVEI
# HDAC3, sequence (Q9Y618 395-489 partner limits assumed): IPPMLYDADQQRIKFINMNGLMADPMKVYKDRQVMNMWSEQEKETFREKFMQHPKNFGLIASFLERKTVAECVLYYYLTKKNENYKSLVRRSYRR
row,IC50 [µM],Compound
1,> 50,"N=C1Sc2ccc(Cl)cc2C2=NCCN12 [Compound 13c, 9-Chloro-2H-Benzo[e]Imidazo[1,2-c][1,3]Thiazin-5(3H)-Imine]"
2,> 50,"N=C1Sc2ccccc2C2=NCCN12 [Compound 13b, 2H-Benzo[e]Imidazo[1,2-c][1,3]Thiazin-5(3H)-Imine]"
3,7 ± 0.5,"N=C1Sc2cccc(Br)c2C2=NCCCN12 [Compound 13j, 11-Bromo-3,4-Dihydrobenzo[e]Pyrimido[1,2-c][1,3]Thiazin-6(2H)-Imine]"

# Biological target: T1, HDAC6 (Homo sapiens, UniProt Q9UBN7)
# T1 sequence (Q9UBN7 1-1215): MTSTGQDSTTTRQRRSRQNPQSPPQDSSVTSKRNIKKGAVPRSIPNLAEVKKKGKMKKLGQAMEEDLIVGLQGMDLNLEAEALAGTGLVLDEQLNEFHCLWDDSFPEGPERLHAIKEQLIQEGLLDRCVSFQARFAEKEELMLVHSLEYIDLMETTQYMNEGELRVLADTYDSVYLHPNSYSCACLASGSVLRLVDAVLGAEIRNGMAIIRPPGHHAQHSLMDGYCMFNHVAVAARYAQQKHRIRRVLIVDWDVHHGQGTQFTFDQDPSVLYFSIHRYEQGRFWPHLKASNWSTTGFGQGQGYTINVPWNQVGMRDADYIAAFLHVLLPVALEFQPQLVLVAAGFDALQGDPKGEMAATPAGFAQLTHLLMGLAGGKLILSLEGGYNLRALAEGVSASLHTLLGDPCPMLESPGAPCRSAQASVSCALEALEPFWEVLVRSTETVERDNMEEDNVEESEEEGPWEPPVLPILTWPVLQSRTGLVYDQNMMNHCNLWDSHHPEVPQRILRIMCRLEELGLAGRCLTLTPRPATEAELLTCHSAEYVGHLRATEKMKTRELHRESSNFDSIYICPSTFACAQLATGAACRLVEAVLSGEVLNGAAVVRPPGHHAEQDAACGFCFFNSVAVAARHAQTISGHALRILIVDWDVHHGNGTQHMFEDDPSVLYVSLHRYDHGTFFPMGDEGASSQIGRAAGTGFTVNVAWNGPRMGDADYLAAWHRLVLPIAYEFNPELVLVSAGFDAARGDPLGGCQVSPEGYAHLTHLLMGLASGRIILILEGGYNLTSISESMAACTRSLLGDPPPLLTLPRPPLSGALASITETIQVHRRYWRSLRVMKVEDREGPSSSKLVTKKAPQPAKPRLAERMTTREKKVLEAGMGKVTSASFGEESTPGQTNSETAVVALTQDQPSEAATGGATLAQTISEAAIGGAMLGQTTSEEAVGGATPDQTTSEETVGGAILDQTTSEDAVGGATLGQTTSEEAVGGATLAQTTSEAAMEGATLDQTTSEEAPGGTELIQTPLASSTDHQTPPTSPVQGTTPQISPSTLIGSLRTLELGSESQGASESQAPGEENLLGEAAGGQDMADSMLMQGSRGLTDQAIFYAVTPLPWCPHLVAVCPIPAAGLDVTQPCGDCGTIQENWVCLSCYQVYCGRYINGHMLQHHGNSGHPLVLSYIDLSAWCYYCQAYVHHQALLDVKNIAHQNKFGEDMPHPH
# Test: HDAC6 colorimetric assay, substrate Boc-Lys(Ac)-AMC
# Assay type: biochemical
# Conditions: Table 1; read-out: IC50 HDAC6
row,IC50 [µM],Compound
1,32 ± 18,"N=C1Sc2ccc(Cl)cc2C2=NCCN12 [Compound 13c, 9-Chloro-2H-Benzo[e]Imidazo[1,2-c][1,3]Thiazin-5(3H)-Imine]"
2,> 50,"N=C1Sc2ccccc2C2=NCCN12 [Compound 13b, 2H-Benzo[e]Imidazo[1,2-c][1,3]Thiazin-5(3H)-Imine]"
3,1.4 ± 0.2,"N=C1Sc2cccc(Br)c2C2=NCCCN12 [Compound 13j, 11-Bromo-3,4-Dihydrobenzo[e]Pyrimido[1,2-c][1,3]Thiazin-6(2H)-Imine]"

# Tested on: T cell leukemia cell line JURKAT
# Test: Growth inhibition of cancer cell line, resazurin assay
# Conditions: Homo sapiens, Jurkat, read-out: GI50 JURKAT
# Experimental: The following tumor cell lines were used: • Human uterine leiomyosarcoma cell line SKUT-1 (ATCC® HTB114™) • Human T cell leukemia cell line JURKAT (ATCC® TIB152™) • Human breast cancer cell line MCF-7 (ATCC® HTB22™)
# Cells were cultured in Dulbecco's modified Eagle's medium (DMEM) supplemented with 10% FCS.
row,GI50 [µM],Compound
1,67 ± 8,"N=C1Sc2ccc(Cl)cc2C2=NCCN12 [Compound 13c, 9-Chloro-2H-Benzo[e]Imidazo[1,2-c][1,3]Thiazin-5(3H)-Imine]"
2,558 ± 342,"N=C1Sc2ccccc2C2=NCCN12 [Compound 13b, 2H-Benzo[e]Imidazo[1,2-c][1,3]Thiazin-5(3H)-Imine]"
3,17 ± 3,"N=C1Sc2cccc(Br)c2C2=NCCCN12 [Compound 13j, 11-Bromo-3,4-Dihydrobenzo[e]Pyrimido[1,2-c][1,3]Thiazin-6(2H)-Imine]"

# Biological target: HDAC4 (Homo sapiens, UniProt P56524)
# Test: not given
# Assay type: biochemical
# Conditions: Table 1
# HDAC4, sequence (P56524 whole entry): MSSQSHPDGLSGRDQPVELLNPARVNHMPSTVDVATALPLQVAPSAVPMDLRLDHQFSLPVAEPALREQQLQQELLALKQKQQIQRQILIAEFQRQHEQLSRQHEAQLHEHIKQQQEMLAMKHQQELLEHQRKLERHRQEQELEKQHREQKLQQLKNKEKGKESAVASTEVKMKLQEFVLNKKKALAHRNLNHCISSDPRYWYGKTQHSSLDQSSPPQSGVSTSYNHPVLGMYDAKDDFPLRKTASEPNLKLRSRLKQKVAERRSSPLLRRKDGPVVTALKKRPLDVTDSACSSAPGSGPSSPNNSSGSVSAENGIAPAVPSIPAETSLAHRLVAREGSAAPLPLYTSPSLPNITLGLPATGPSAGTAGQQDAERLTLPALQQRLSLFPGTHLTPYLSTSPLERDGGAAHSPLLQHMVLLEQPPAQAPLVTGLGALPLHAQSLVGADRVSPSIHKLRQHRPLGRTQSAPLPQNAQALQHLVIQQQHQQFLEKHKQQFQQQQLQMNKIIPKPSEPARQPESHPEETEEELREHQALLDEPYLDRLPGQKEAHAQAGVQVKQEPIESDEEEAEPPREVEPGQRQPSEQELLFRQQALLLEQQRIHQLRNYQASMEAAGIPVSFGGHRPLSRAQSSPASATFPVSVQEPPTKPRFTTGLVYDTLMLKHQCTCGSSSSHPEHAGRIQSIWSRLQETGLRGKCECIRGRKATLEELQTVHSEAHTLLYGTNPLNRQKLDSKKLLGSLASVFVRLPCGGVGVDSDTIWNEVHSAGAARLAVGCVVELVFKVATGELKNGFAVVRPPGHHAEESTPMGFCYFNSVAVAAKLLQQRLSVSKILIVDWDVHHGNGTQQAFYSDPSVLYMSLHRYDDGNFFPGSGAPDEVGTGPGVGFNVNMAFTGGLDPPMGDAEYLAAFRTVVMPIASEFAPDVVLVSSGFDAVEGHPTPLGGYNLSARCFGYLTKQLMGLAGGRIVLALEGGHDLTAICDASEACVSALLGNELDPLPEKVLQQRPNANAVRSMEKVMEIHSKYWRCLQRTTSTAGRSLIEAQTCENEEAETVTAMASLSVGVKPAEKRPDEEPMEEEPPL
row,IC50 [µM],Compound
1,> 50,"N=C1Sc2ccc(Cl)cc2C2=NCCN12 [Compound 13c, 9-Chloro-2H-Benzo[e]Imidazo[1,2-c][1,3]Thiazin-5(3H)-Imine]"
2,> 50,"N=C1Sc2ccccc2C2=NCCN12 [Compound 13b, 2H-Benzo[e]Imidazo[1,2-c][1,3]Thiazin-5(3H)-Imine]"
3,2.3 ± 0.3,"N=C1Sc2cccc(Br)c2C2=NCCCN12 [Compound 13j, 11-Bromo-3,4-Dihydrobenzo[e]Pyrimido[1,2-c][1,3]Thiazin-6(2H)-Imine]"

# Biological target: T2, HDAC7 (Homo sapiens, UniProt Q8WUI4)
# T2 sequence (Q8WUI4 1-952): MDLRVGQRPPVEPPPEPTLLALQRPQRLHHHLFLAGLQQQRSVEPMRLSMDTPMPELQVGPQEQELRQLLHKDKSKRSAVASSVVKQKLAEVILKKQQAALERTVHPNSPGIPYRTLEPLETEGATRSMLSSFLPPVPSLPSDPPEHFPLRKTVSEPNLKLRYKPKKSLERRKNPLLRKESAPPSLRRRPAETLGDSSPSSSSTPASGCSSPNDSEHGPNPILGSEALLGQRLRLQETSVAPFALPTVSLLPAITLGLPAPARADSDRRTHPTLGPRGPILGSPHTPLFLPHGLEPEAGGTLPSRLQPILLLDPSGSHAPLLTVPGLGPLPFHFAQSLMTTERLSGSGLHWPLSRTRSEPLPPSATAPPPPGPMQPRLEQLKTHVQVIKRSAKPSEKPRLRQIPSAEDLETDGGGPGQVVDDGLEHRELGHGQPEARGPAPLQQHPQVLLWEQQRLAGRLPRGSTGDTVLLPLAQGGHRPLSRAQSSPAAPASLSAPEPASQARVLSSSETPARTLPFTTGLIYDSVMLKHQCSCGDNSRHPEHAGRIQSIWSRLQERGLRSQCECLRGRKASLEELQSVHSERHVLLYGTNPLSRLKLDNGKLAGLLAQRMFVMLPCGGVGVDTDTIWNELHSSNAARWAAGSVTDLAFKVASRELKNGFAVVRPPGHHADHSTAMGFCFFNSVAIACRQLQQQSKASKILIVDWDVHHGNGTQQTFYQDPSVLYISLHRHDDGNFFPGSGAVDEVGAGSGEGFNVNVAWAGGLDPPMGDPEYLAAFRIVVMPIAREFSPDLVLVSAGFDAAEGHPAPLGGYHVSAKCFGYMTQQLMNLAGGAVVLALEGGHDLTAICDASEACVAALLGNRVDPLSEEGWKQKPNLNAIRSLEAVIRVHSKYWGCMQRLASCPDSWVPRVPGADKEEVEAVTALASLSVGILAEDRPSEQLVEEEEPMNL
# Test: HDAC7 colorimetric assay, substrate Boc-Lys(TFA)-AMC
# Conditions: IC50 HDAC7, Table 1
row,IC50 [µM],Compound
1,0.5 ± 0.2,"N=C1Sc2ccc(Cl)cc2C2=NCCN12 [Compound 13c, 9-Chloro-2H-Benzo[e]Imidazo[1,2-c][1,3]Thiazin-5(3H)-Imine]"
2,1.3 ± 0.7,"N=C1Sc2ccccc2C2=NCCN12 [Compound 13b, 2H-Benzo[e]Imidazo[1,2-c][1,3]Thiazin-5(3H)-Imine]"
3,2 ± 0.7,"N=C1Sc2cccc(Br)c2C2=NCCCN12 [Compound 13j, 11-Bromo-3,4-Dihydrobenzo[e]Pyrimido[1,2-c][1,3]Thiazin-6(2H)-Imine]"

# Same assay, conditions: IC50 for HDAC7, FIG. 3; 20 μM Boc-Lys(TFA)-AMC
row,IC50 [µM],Compound
1,0.51,"N=C1Sc2ccc(Cl)cc2C2=NCCN12 [Compound 13c, 9-Chloro-2H-Benzo[e]Imidazo[1,2-c][1,3]Thiazin-5(3H)-Imine]"

# Tested on: breast cancer cell line MCF-7
# Test: Growth inhibition of cancer cell line, resazurin assay
# Assay type: cell-based, Human
# Conditions: Homo sapiens, MCF7; Table 2, resazurin assay
row,GI50 [µM],Compound
1,60 ± 6,"N=C1Sc2ccc(Cl)cc2C2=NCCN12 [Compound 13c, 9-Chloro-2H-Benzo[e]Imidazo[1,2-c][1,3]Thiazin-5(3H)-Imine]"
2,213 ± 50,"N=C1Sc2ccccc2C2=NCCN12 [Compound 13b, 2H-Benzo[e]Imidazo[1,2-c][1,3]Thiazin-5(3H)-Imine]"
3,11 ± 3,"N=C1Sc2cccc(Br)c2C2=NCCCN12 [Compound 13j, 11-Bromo-3,4-Dihydrobenzo[e]Pyrimido[1,2-c][1,3]Thiazin-6(2H)-Imine]"

# Biological target: HDAC2 (Homo sapiens, UniProt Q92769)
# Test: HDAC2 colorimetric assay, substrate Boc-Lys(Ac)-AMC
# Assay type: biochemical
# Conditions: Table 1
# HDAC2, sequence (Q92769 whole entry): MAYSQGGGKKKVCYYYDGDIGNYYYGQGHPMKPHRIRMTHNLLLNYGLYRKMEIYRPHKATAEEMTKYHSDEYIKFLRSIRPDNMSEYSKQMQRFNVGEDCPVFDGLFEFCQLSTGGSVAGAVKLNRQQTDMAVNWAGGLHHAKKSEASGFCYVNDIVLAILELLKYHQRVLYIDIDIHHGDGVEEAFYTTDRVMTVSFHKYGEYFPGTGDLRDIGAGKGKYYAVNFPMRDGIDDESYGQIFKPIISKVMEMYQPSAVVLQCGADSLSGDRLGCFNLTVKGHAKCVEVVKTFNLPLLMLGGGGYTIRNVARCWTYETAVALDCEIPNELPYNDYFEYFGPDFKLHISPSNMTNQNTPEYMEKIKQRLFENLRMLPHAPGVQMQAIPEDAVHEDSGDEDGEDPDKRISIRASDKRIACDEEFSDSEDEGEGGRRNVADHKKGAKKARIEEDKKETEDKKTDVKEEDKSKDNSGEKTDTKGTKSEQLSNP
row,IC50 [µM],Compound
1,> 50,"N=C1Sc2ccc(Cl)cc2C2=NCCN12 [Compound 13c, 9-Chloro-2H-Benzo[e]Imidazo[1,2-c][1,3]Thiazin-5(3H)-Imine]"
2,> 50,"N=C1Sc2ccccc2C2=NCCN12 [Compound 13b, 2H-Benzo[e]Imidazo[1,2-c][1,3]Thiazin-5(3H)-Imine]"
3,16 ± 2,"N=C1Sc2cccc(Br)c2C2=NCCCN12 [Compound 13j, 11-Bromo-3,4-Dihydrobenzo[e]Pyrimido[1,2-c][1,3]Thiazin-6(2H)-Imine]"

# Biological target: HDAC5 (Homo sapiens, UniProt Q9UQL6)
# Test: HDAC5 colorimetric assay, substrate Boc-Lys(TFA)-AMC
# Conditions: not given
# HDAC5, sequence (Q9UQL6 whole entry): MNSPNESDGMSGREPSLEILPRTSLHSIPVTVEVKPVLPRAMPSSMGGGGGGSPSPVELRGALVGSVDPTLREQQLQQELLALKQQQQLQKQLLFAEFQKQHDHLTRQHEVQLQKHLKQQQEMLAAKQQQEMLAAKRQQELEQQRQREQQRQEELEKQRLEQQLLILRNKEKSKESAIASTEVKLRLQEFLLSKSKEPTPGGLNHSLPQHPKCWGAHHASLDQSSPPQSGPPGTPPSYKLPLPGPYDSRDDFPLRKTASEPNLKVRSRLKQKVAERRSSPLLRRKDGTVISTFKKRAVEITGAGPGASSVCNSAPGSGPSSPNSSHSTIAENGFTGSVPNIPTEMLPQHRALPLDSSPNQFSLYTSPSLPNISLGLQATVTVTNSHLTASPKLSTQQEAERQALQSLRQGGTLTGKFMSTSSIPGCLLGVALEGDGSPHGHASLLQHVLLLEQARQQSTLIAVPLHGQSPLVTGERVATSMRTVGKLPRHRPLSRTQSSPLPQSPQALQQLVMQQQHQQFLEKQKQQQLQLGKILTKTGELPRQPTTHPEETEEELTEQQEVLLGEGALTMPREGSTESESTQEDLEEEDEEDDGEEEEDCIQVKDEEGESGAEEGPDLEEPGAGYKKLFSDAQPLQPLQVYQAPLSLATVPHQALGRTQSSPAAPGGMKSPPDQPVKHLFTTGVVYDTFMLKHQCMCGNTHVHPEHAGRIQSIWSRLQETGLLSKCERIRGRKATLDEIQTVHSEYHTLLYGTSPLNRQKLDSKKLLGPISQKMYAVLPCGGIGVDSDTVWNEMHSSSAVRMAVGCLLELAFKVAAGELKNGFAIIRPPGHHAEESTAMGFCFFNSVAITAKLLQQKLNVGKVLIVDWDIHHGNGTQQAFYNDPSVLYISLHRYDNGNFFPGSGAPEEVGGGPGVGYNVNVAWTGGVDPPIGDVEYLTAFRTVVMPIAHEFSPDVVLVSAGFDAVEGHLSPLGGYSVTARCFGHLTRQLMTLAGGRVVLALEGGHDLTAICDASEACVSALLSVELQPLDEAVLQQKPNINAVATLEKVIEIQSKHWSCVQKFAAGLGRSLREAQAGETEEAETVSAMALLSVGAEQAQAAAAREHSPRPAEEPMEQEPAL
row,IC50 [µM],Compound
1,13,"N=C1Sc2ccc(Cl)cc2C2=NCCN12 [Compound 13c, 9-Chloro-2H-Benzo[e]Imidazo[1,2-c][1,3]Thiazin-5(3H)-Imine]"
2,> 50,"N=C1Sc2ccccc2C2=NCCN12 [Compound 13b, 2H-Benzo[e]Imidazo[1,2-c][1,3]Thiazin-5(3H)-Imine]"
3,0.038 ± 0.001,"N=C1Sc2cccc(Br)c2C2=NCCCN12 [Compound 13j, 11-Bromo-3,4-Dihydrobenzo[e]Pyrimido[1,2-c][1,3]Thiazin-6(2H)-Imine]"

# Biological target: T3, HDAC8 (Homo sapiens, UniProt Q9BY41)
# T3 sequence (Q9BY41 1-377): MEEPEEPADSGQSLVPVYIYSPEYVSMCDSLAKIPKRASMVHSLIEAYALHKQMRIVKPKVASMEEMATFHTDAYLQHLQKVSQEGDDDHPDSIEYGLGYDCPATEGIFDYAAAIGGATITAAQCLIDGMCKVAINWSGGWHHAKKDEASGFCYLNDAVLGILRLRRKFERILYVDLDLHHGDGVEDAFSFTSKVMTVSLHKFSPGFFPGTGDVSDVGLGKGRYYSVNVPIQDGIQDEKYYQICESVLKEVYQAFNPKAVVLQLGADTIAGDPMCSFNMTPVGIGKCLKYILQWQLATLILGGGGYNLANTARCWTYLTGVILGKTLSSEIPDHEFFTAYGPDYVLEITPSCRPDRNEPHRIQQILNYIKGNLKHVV
# Test: HDAC8 colorimetric assay, substrate Boc-Lys(TFA)-AMC
# Conditions: IC50 HDAC8, Table 1
# Experimental: 1 nM of HDAC4 was incubated with increasing concentrations of the respective compound for 30 minutes at 30° C. The reaction was initiated by addition of 20 μM of the substrate Boc-Lys(trifluoracetyl)-AMC. After an incubation of 60 minutes the reaction was stopped by addition of 20 μM SAHA and the deacetylated substrate was converted into a fluorescent product by the addition of trypsin.
row,IC50 [µM],Compound
1,0.18 ± 0.02,"N=C1Sc2ccc(Cl)cc2C2=NCCN12 [Compound 13c, 9-Chloro-2H-Benzo[e]Imidazo[1,2-c][1,3]Thiazin-5(3H)-Imine]"
2,4.4 ± 0.8,"N=C1Sc2ccccc2C2=NCCN12 [Compound 13b, 2H-Benzo[e]Imidazo[1,2-c][1,3]Thiazin-5(3H)-Imine]"
3,0.0063 ± 0.0004,"N=C1Sc2cccc(Br)c2C2=NCCCN12 [Compound 13j, 11-Bromo-3,4-Dihydrobenzo[e]Pyrimido[1,2-c][1,3]Thiazin-6(2H)-Imine]"

# Same assay, conditions: IC50 for HDAC8, FIG. 3; 20 μM Boc-Lys(TFA)-AMC
row,IC50 [µM],Compound
1,0.2,"N=C1Sc2ccc(Cl)cc2C2=NCCN12 [Compound 13c, 9-Chloro-2H-Benzo[e]Imidazo[1,2-c][1,3]Thiazin-5(3H)-Imine]"

# Reference: US20210220370A1, “SELECTIVE HDAC8 INHIBITORS AND THEIR USES” (HOCHSCHULE DARMSTADT, priority 2015, published 2021)
